# Several values for one entry are separate records, joined by “and”; a condition that tells them apart may be missing. Equal values may be shown once.
# How the values were obtained:
# [1] = test system: orientation of the RLC-region of myosin in demembranated trabeculae; test: Polarized fluorescence of BSR-cRLC-E in demembranated trabeculae (order parameter <P2>); set-up: species or system rat (Rattus norvegicus)
# Description: In a subset of trabeculae, we replaced the endogenous myosin regulatory light chain (RLC) with a recombinant cardiac RLC crosslinked to a bifunctional sulforhodamine (BSR) along its E-helix (BSR-cRLC-E)[39],[40]. This allowed us to determine the orientation of the RLC-region of myosin in demembranated trabeculae using polarized fluorescence (Fig. 4b; Supplementary Table 2). […] In contrast, F10 increased <P2> for the E-helix probe, under both relaxing and activating conditions, and abolished the orientation change in the myosin heads associated with Ca^2+-activation of the myofilaments. […] As a step towards elucidating the molecular mechanism behind F10’s stabilizing effect on the myosin head OFF conformation, we measured the affinity of isolated bovine β-cardiac myosin S1 in the presence of various nucleotides and F10 for the myosin S2 tail domain using Microscale Thermophoresis (Fig. S4).
# BSR-cRLCs were exchanged into demembranated trabeculae by extraction in CDTA-rigor solution (composition in mmol L^−1: 5 CDTA, 50 KCl, 40 Tris-HCl pH 8.4, 0.1% (v/v) Triton X-100) for 30 min followed by reconstitution with 40 μmol L^−1 BSR-cRLC in relaxing solution (composition in mmol L^−1: 25 Imidazole, 15 Na2Creatine phosphate (Na2CrP), 78.4 KPropionate (KPr), 5.65 Na2ATP, 6.8 MgCl2, 10 K2EGTA, 1 DTT, pH 7.1) for 1 h, replacing ~50% of the endogenous cRLC[40],[64].
# Composition of experimental solutions and activation protocols were identical to those described previously for fluorescence polarization experiments. Fluorescence emission from BSR-cRLCs in trabeculae were collected by a 0.25 N.A. objective using an excitation light beam in line with the emission path. […] The fluorescence emission was separated into parallel and perpendicular components by polarizing beam splitters, and its intensity measured by two photomultipliers, allowing determination of the order parameter <P2> that describes the dipole orientations in the trabeculae. […]
# [2] = molecular target: bovine cardiac myofibrils (Bos taurus, UniProt Q9BE39); test: mant-ATP chase single nucleotide turnover, cardiac myofibrils;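 note: bovine cardiac myofibrils at 1 mg/mL in PIPES buffer, 20 µM mant-ATP aged 1 min then chased with 20 mM ATP, fluorescence (ex 360, em 450 nm) read every second for 15 min at 25 °C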
# bovine cardiac myofibrils, sequence (Q9BE39 whole entry): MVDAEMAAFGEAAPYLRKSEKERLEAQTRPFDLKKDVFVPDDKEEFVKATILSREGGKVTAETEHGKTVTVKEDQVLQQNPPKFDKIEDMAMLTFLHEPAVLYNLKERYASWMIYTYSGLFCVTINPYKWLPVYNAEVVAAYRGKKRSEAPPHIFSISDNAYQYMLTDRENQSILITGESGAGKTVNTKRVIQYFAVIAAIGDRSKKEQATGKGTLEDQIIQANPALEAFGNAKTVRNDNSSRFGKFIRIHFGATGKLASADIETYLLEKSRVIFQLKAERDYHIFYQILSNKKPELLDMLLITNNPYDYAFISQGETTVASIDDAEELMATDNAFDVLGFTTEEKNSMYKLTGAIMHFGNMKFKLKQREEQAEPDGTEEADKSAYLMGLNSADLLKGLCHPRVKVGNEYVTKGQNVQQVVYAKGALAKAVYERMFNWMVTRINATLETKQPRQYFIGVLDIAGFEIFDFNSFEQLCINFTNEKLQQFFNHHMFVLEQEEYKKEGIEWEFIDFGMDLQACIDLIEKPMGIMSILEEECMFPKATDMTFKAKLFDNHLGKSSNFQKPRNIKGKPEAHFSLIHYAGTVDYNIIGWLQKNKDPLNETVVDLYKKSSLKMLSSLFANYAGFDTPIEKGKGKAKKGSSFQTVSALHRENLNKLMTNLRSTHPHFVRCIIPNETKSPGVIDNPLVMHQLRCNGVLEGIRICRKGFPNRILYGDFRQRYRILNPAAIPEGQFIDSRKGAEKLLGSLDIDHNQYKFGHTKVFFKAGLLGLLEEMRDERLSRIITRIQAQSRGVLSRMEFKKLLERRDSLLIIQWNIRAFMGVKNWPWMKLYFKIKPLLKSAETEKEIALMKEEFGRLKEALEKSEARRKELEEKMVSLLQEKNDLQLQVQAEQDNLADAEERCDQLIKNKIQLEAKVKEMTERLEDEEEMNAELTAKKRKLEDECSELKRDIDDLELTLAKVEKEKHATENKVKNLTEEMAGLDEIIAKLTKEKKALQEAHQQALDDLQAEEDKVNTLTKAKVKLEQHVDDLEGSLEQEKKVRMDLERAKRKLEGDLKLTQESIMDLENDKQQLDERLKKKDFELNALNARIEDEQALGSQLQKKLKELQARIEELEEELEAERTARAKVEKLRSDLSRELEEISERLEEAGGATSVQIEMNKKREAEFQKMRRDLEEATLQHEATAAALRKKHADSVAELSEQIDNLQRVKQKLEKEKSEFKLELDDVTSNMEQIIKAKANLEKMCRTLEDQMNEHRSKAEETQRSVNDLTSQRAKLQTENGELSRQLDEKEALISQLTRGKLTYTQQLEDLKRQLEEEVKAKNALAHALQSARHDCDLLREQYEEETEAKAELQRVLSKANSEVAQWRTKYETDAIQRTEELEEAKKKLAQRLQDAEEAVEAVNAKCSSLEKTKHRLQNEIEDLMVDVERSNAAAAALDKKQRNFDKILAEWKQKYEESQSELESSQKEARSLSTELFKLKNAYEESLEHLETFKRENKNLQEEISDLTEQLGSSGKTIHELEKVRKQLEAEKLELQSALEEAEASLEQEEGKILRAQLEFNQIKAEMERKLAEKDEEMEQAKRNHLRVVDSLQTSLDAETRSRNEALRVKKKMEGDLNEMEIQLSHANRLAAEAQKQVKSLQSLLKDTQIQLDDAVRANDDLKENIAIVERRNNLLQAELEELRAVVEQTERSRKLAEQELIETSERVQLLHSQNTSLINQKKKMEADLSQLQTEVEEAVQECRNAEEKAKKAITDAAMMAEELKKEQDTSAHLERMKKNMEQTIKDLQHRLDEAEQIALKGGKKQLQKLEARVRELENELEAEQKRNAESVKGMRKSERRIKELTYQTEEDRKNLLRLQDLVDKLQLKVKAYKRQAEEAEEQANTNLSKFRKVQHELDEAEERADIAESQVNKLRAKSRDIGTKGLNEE
# bovine cardiac myofibrils, sequence (P85100 whole entry partner): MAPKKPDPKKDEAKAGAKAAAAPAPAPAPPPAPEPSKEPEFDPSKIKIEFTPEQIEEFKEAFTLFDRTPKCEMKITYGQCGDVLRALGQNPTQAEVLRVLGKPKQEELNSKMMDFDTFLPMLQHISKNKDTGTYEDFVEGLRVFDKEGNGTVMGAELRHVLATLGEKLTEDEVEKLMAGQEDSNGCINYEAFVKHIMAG
# bovine cardiac myofibrils, sequence (Q3SZE5 whole entry partner): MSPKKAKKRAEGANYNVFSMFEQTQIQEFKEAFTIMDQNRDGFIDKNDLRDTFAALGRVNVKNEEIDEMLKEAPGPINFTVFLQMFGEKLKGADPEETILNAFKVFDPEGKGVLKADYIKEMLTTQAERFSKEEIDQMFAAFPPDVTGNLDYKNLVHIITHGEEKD
# Description: We used systems of increasing complexity ranging from the isolated cardiac myosin motor domains (Fig. 3a) to synthetic thick filaments formed from purified full-length bovine cardiac myosin (Fig. 3b) and bovine cardiac myofibrils as substrates in the chase assays (Fig. 3c). In contrast to the isolated myosin motors, synthetic thick filaments contain two myosin head domains per molecule connected via their coiled-coil tail.
# Synthetic thick filaments were freshly prepared by diluting full-length bovine cardiac myosin stock into assay buffer (composition in mmol L^−1: 15 PIPES pH 7, 5 MgCl2, 1 DTT) and incubation on ice for 2 h. Bovine myosin S1 and synthetic thick filament concentrations were adjusted to 0.4 μmol L^−1 with assay buffer and 40 μL aliquoted into individual wells of a black 384-well plate (Greiner). Mant-ATP (JenaBioscience) was added to each well to a final concentration of 0.4 μmol L^−1 using an automated injector unit in a ClarioStar Plate Reader (BMG LabTech) and the system was allowed to age for 1 min. The chase phase was started by adding a final concentration of 2 mmol L^−1 ATP using a second automated injector unit. Fluorescence intensity from each well was constantly measured for 15 min every 1 sec at 25 °C with the following settings: excitation at 360 nm with a 20 nm bandwidth and emission at 450 nm with a 20 nm bandwidth. For experiments with cardiac myofibrils the concentration was adjusted to 1 mg m L^−1, and the mant-ATP and ATP concentrations were increased to 20 μmol L^−1 and 20 mmol L^−1, respectively.
# [3] = Cardiac myofibrils, individual replicates
structure (smiles),measurement,setting,value
CCc1cc2c(=O)n(NC(=S)NC(C)C)cnc2s1 [F10],order parameter <P2>max,"[1]; full Ca^2+ activation pCa 4.5, 20 μmol L^−1 F10, control 0.078 ± 0.008",0.160 and 0.235 and 0.225
same,<P2>max,[1]; individual replicates,0.160 and 0.235 and 0.225
same,<P2>min,[1]; individual replicates,0.178 and 0.208 and 0.194
same,effect on the rate of the fast phase,[2],no effect
same,kfast,"[2]; 2 μmol L^−1 Mavacamten or 20 μmol L^−1 F10, control 0.0719 ± 0.0193",0.0552 ± 0.0106 s⁻¹
same,kfast,[2]; [3],0.02031 s⁻¹ and 0.02851 s⁻¹ and 0.03852 s⁻¹ and 0.09761 s⁻¹ and 0.08409 s⁻¹ and 0.06218 s⁻¹
same,kslow,[2]; [3],0.003333 s⁻¹ and 0.002949 s⁻¹ and 0.001064 s⁻¹ and 0.001853 s⁻¹ and 0.00204 s⁻¹ and 0.001557 s⁻¹
same,slow phase,[2]; [3],72.63% and 66.55% and 67.45% and 65.69% and 56.45% and 78.18%
same,Bar graph,"[2]; Figure 3c, individual replicates",72.63 and 66.55 and 67.45 and 65.69 and 56.45 and 78.18
same,Representative Traces,[2]; t [s] = 6,0.8687
same,Representative Traces,[2]; t [s] = 7,0.7649
same,Representative Traces,[2]; t [s] = 8,0.847
same,Representative Traces,[2]; t [s] = 9,0.7441
same,Representative Traces,[2]; t [s] = 10,0.7291
same,Representative Traces,[2]; t [s] = 11,0.7606
same,Representative Traces,[2]; t [s] = 12,0.6903
same,Representative Traces,[2]; t [s] = 13,0.6968
same,Representative Traces,[2]; t [s] = 14,0.7384
same,Representative Traces,[2]; t [s] = 96,0.4594
same,Representative Traces,[2]; t [s] = 97,0.4902
same,Representative Traces,[2]; t [s] = 98,0.4564
same,Representative Traces,[2]; t [s] = 99,0.5227
same,Representative Traces,[2]; t [s] = 100,0.5227
same,Representative Traces,[2]; t [s] = 101,0.4329
same,Representative Traces,[2]; t [s] = 102,0.4816
same,Representative Traces,[2]; t [s] = 103,0.4496
same,Representative Traces,[2]; t [s] = 104,0.4983
same,Representative Traces,[2]; t [s] = 105,0.4303
same,Representative Traces,[2]; t [s] = 106,0.4469
same,Representative Traces,[2]; t [s] = 107,0.4441
same,Representative Traces,[2]; t [s] = 108,0.454
same,Representative Traces,[2]; t [s] = 109,0.4003
same,Representative Traces,[2]; t [s] = 110,0.4314
same,Representative Traces,[2]; t [s] = 111,0.4793
same,Representative Traces,[2]; t [s] = 112,0.4152
same,Representative Traces,[2]; t [s] = 113,0.4525
same,Representative Traces,[2]; t [s] = 114,0.4165
same,Representative Traces,[2]; t [s] = 115,0.4344
same,Representative Traces,[2]; t [s] = 116,0.416
same,Representative Traces,[2]; t [s] = 117,0.4849
same,Representative Traces,[2]; t [s] = 118,0.4794
same,Representative Traces,[2]; t [s] = 119,0.4668
same,Representative Traces,[2]; t [s] = 120,0.4665
same,Representative Traces,[2]; t [s] = 121,0.4689
same,Representative Traces,[2]; t [s] = 122,0.4838
same,Representative Traces,[2]; t [s] = 123,0.4652
same,Representative Traces,[2]; t [s] = 124,0.4182
same,Representative Traces,[2]; t [s] = 125,0.3966
same,Representative Traces,[2]; t [s] = 126,0.4538
same,Representative Traces,[2]; t [s] = 127,0.4517
same,Representative Traces,[2]; t [s] = 128,0.4361
same,Representative Traces,[2]; t [s] = 129,0.4908
same,Representative Traces,[2]; t [s] = 130,0.4396
same,Representative Traces,[2]; t [s] = 131,0.3944
same,Representative Traces,[2]; t [s] = 132,0.397
same,Representative Traces,[2]; t [s] = 133,0.4059
same,Representative Traces,[2]; t [s] = 134,0.4164
same,Representative Traces,[2]; t [s] = 135,0.475
same,Representative Traces,[2]; t [s] = 136,0.486
same,Representative Traces,[2]; t [s] = 137,0.4478
same,Representative Traces,[2]; t [s] = 138,0.507
same,Representative Traces,[2]; t [s] = 139,0.3865
same,Representative Traces,[2]; t [s] = 140,0.4564
same,Representative Traces,[2]; t [s] = 141,0.4199
same,Representative Traces,[2]; t [s] = 142,0.4501
same,Representative Traces,[2]; t [s] = 143,0.4218
same,Representative Traces,[2]; t [s] = 144,0.4033
same,Representative Traces,[2]; t [s] = 145,0.441
same,Representative Traces,[2]; t [s] = 146,0.3827
same,Representative Traces,[2]; t [s] = 147,0.3962
same,Representative Traces,[2]; t [s] = 148,0.4486
same,Representative Traces,[2]; t [s] = 149,0.4251
same,Representative Traces,[2]; t [s] = 150,0.3547
same,Representative Traces,[2]; t [s] = 151,0.4491
same,Representative Traces,[2]; t [s] = 152,0.3776
same,Representative Traces,[2]; t [s] = 153,0.3808
same,Representative Traces,[2]; t [s] = 154,0.3286
same,Representative Traces,[2]; t [s] = 155,0.4639
same,Representative Traces,[2]; t [s] = 156,0.435
same,Representative Traces,[2]; t [s] = 157,0.3725
same,Representative Traces,[2]; t [s] = 158,0.3522
same,Representative Traces,[2]; t [s] = 159,0.4127
same,Representative Traces,[2]; t [s] = 160,0.3983
same,Representative Traces,[2]; t [s] = 161,0.3945
same,Representative Traces,[2]; t [s] = 162,0.3807
same,Representative Traces,[2]; t [s] = 163,0.4372
same,Representative Traces,[2]; t [s] = 164,0.4557
same,Representative Traces,[2]; t [s] = 165,0.4341
same,Representative Traces,[2]; t [s] = 166,0.3757
same,Representative Traces,[2]; t [s] = 167,0.3677
same,Representative Traces,[2]; t [s] = 168,0.4335
same,Representative Traces,[2]; t [s] = 169,0.3827
same,Representative Traces,[2]; t [s] = 170,0.3934
same,Representative Traces,[2]; t [s] = 171,0.3476
same,Representative Traces,[2]; t [s] = 172,0.3794
same,Representative Traces,[2]; t [s] = 173,0.3525
same,Representative Traces,[2]; t [s] = 174,0.3963
same,Representative Traces,[2]; t [s] = 175,0.3642
same,Representative Traces,[2]; t [s] = 176,0.3906
same,Representative Traces,[2]; t [s] = 177,0.3677
same,Representative Traces,[2]; t [s] = 178,0.392
same,Representative Traces,[2]; t [s] = 179,0.4104
same,Representative Traces,[2]; t [s] = 180,0.4065
same,Representative Traces,[2]; t [s] = 181,0.4021
same,Representative Traces,[2]; t [s] = 182,0.3788
same,Representative Traces,[2]; t [s] = 183,0.3953
same,Representative Traces,[2]; t [s] = 184,0.397
same,Representative Traces,[2]; t [s] = 185,0.4128
same,Representative Traces,[2]; t [s] = 186,0.3872
